Laboratory results: patent publication US20240173292A1, “COMPOUNDS THAT SYNERGIZE WITH COPPER TO KILL STREPTOCOCCUS PNEUMONIAE” (priority 2021, published 2024)
Entries after “also recorded” stand apart in the source; their conditions may differ. Where two headings read alike, the source gives them in different places.

What was measured:
[1] = test system: WT TIGR4 S. pneumoniae; test: Growth curves in ThyB with copper sulfate and compound; settings: for copper-dependent toxicity (CDT) / growth defect in growth curve: compound plus copper sulfate
[2] = test system: ΔcopA mutant strain; test: Growth curves in ThyB with copper sulfate and compound, copper exporter deficient mutant; type: cell-based, Streptococcus pneumoniae; settings: compound plus copper
Description: Final solution was set to pH 6.6.

[3] = cited from earlier work
[4] = test system: S. aureus; settings: cited from earlier work
[5] = test system: WT TIGR4 S. pneumoniae; settings: M17
[6] = test system: Streptococcus pyogenes; settings: inhaler with 25 mg DMDC twice a day for two weeks
[7] = test system: Coccidioides posadasii; settings: inhaler with 50 mg DMDC twice a day for a week
[8] = test system: Methicillin-resistant Staphylococcus aureus (MRSA); settings: topical cream containing 50 mg DMDC twice daily
[9] = test system: TIGR4 S. pneumoniae; settings: GFAAS
[10] = test system: WT TIGR4 S. pneumoniae; settings: RPMI
[11] = test system: WT TIGR4 S. pneumoniae; test: Killing curves in THYB
[12] = test system: Streptococcus pneumoniae; settings: 150 mg DMDC orally once a day for a week
[13] = test system: TIGR4 S. pneumoniae; settings: ICP-OES
[14] = test system: WT TIGR4 bacteria co-cultured with activated J774A.1 macrophages; test: Macrophage killing assay, TIGR4 co-cultured with J774A.1 macrophages; type: cell-based, murine; settings: macrophages with 100 μM inhibitor; bacteria treated with 250 μM Cu2+ + 16 μM DMDC
[15] = test system: M. tuberculosis; settings: cited from earlier work
[16] = test system: Schistosoma mansoni; settings: newly transformed and lung stage schistosomula; cited from earlier work

With O.c1cnc2c(c1)ccc1cccnc12 [1,10-phenalthroline monohydrate] the “copper-dependent toxicity (CDT) / growth defect in growth curve” value ([1]; WT TIGR4) was “no effect on wild type” and the “CDT / growth defect in growth curve, ΔcopA” value (shortened to “CDT / growth defect … ΔcopA”) [2] was “an effect”.

For Oc1cccc2cccnc12 [8HQ, 8-hydroxyquinoline], the “copper-dependent toxicity (CDT) / growth defect in growth curve” value ([1]; WT TIGR4) is given as “no 8HQ mediated CDT; also recorded: do not cause a significant growth defect”, the toxicity in mammals ([3]; mammals) is given as “inherent toxicity” and the “CDT against S. aureus” value [4] is given as “have CDT”. For the same molecule, the “CDT / growth defect … ΔcopA” value [2] was “susceptible; also recorded: does cause a growth defect”.

For CCN(CC)C(=S)S [DETDC, N,N-diethyldithiocarbamate], the “CDT at much higher / high concentrations” value ([1]; with copper) was “no effect”.

For CN(C)C(=S)[S][Na] [DMDC], the “time required for killing” value [5] is listed as 1 to 2 h, the side effects [6] is listed as “No side effects” and the “toxicity of chronic use” value ([3]; chronic use) is listed as “harm the liver and lead to higher rates of some carcinomas”. The “toxicity of high doses” value ([3]; high doses) was “neurological problems”, the side effects [7] was “No side effects” and the side effects [8] was “No side effects”. The “increase of intracellular copper compared to the copper treated samples” value ([9]; 250 μM Cu2+ + 16 μM DMDC) was 7 fold, the “increase of intracellular copper compared to the copper treated samples” value ([9]; 250 μM Cu2+ + 32 μM DMDC) was 10 fold and the “time required for killing” value [10] was 3 to 4 h. For the same molecule, the “kill of wild-type Streptococcus pneumoniae” value ([11]; low micromolar DMDC complexed with copper, in 2 hours) was “up to 99.9%”, the side effects [12] was “No side effects” and the “increase of intracellular copper compared to the untreated control” value ([13]; 250 μM Cu2+ + 16 μM DMDC) was 65 fold. For the same molecule, the “increase of intracellular copper compared to the untreated control” value ([13]; 250 μM Cu2+ + 32 μM DMDC) was 67 fold.

For N=C(N)NOCC[C@H](N)C(=O)O [L-canavanine], the “recovered bacteria with macrophage inhibitor treatment” value [14] was “no statistically significant improvement”.

In the case of CC1(C)C2CC3OB(c4cccc5cccnc45)OC3(C)C1C2 (stereo not drawn) [QBP, quinoline boronic acid pinanediol ester], the “copper-dependent toxicity (CDT) / growth defect in growth curve” value ([1]; WT TIGR4) is reported as “no CDT; also recorded: do not cause a significant growth defect”, the “CDT / growth defect … ΔcopA” value [2] is reported as “susceptible; also recorded: does cause a growth defect” and the “CDT on the ΔcopA mutant as compared to 8HQ” value [2] is reported as “did not exhibit as much CDT”.

In the case of CCN(CC)C(=S)SSC(=S)N(CC)CC [TETD, tetraethylthiuram disulfide], the “growth with compound alone” value ([1]; TETD alone, no copper) is reported as “prevented growth”, the “copper-dependent toxicity (CDT) / growth defect in growth curve” value ([1]; WT TIGR4) is reported as “returned growth to wild type levels” and the “copper-dependent toxicity (CDT) / growth defect in growth curve” value ([1]; WT TIGR4, listed as disulfiram) is reported as “not observed”. The “copper dependent toxicity against M. tuberculosis” value [15] was “copper dependent toxicity” and the “bactericidal activity in killing curve” value ([11]; compound alone or with copper sulfate) was “did not show bactericidal activity”.

For S=C(S)N1CCN(C(=S)S)CC1 [TLA2, Piperizine bis-dithiocarbamate], the “concentration showing protective effect vs copper” value ([1]; 250 uM or 500 uM copper sulfate) was over 32 µM.

With COc1cc(C(C)=O)ccc1O [apocynin] the “recovered bacteria with macrophage inhibitor treatment” value [14] was “no statistically significant improvement”.

In the case of O=C(C1CCCCC1)N1CC(=O)N2CCc3ccccc3C2C1 (stereo not drawn) [praziquantel], the “efficacy of praziquantel in these developmental stages” value [16] is listed as “not effective”.

With Cc1ncc(CSSCc2cnc(C)c(O)c2CO)c(CO)c1O.Cl [pyrithoxin dihydrochloride] the “copper-dependent toxicity (CDT) / growth defect in growth curve” value ([1]; WT TIGR4) was “no effect”.
